Data on three compounds can be found in PMC6154738, “Anti-Onchocerca and Anti-Caenorhabditis Activity of a Hydro-Alcoholic Extract from the Fruits of Acacia nilotica and Some Proanthocyanidin Derivatives” (Molecules : A Journal of Synthetic Chemistry and Natural …, 2017).

For orientation: CC50 means the concentration giving 50% cytotoxicity.

The subject of one series is Wistar rats. The experiment in a line: Acute oral toxicity on rats.
Series [1] in a line: In vitro cytotoxicity (MTT) and CC50 determination. The following applies: human; for CC50 at 48 h: Caco-2, CC50 after 48 h calculated in µM, read-out: Cytotoxicity CC50, Caco-2 (in brackets) (converted); for CC50 at 72 h: Caco-2, MTT, read-out: Cytotoxicity, means CC50 ± SD, Caco-2. Type of series: cell-based. As to the method: Cell culture: […] cells at Passage 70 were kindly provided by Prof. Hensel, Institute of Pharmaceutical Biology and Phytochemistry, University of Münster, and were cultured as previously describe by Zumdick et al..
Cytotoxicity test: The cytotoxicity assays were performed according to the method of Rahman et al.. Briefly, 1.5 × 10^4 viable cells/well were seeded in a 96-well plate and incubated for 24 to 48 h. […] DMEM samples were used as the negative control. […] The medium was removed, and formazan, generated by the activity of dehydrogenases, was solubilized with 70 µL of acidified isopropanol (0.4 M HCl). The amount of MTT-formazan that is directly proportional to the number of living cells was determined by measuring the optical density (OD) at 540 nm using a spectrophotometer. All controls used were treated equally. As control and to determine 100% growth, Caco-2 cells were grown in the absence of drugs so as to calculate cell viability. All determinations were performed in triplicate. […] The selectivity index (SI) values were calculated as the ratio: SI = CC50 of drug on Caco2/LC50 of drug on worm.

The subject of the next series is O. ochengi females. The series is described as follows: microbe, parasite or virus in culture. The arrangement: species or system Onchocerca ochengi. The following applies: for LC50: Onchocerca ochengi, 48 h; for Selectivity Index (SI) O. ochengi Females: SI = CC50 on Caco-2/LC50 on worm. The method, then: The adult female worms were isolated by digestion of the nodules with collagenase at 37 °C. The female worms were cultured in a CO2-incubator [67]. For anthelmintic activity, they were incubated with the crude extracts, fractions and pure compounds.
(§1) Adult worms (six individuals per well for males and one per well for the female) and Mf were washed twice and were subsequently transferred to RPMI-1640 medium supplemented with L-glutamine, 100 U/mL penicillin and 100 µg/mL streptomycin and incubated at 37 °C in 24-well plates (96-well plate for Mf) with different concentrations of the drugs tested. Worm mortality was checked by observation under the binocular microscope after 48 h. After shaking, immotile and fully-elongated worms were considered to be dead. All tests were done in three independent triplicate determinations.

A further series deals with O. ochengi males. The experiment in a line: microbe, parasite or virus in culture. The following applies: for LC50: Onchocerca ochengi, 48 h; for Selectivity Index (SI) O. ochengi Males: SI = CC50 on Caco-2/LC50 on worm. The arrangement: species or system Onchocerca ochengi.
Source text: The adult male worms were isolated as previously describe by Ndjonka et al. from fresh pieces of cattle skin (cow-udder) with palpable nodules obtained from the communal slaughter house of Ngaoundere in the Adamawa region of Cameroon. Nodules removed from the skin were brought to the laboratory, washed, drained and sterilized with 70% ethanol for dissection. After dissection of nodules, O. ochengi were extracted, isolated and washed three times in sterile phosphate-buffered saline (PBS). To analyze the anthelmintic activity of extract, fractions and pure compounds, the worms were incubated at 37 °C.
as §1

Series [2] has as its system C. elegans CB211 (lev-1(e211) IV). The series is described as follows: microbe, parasite or virus in culture. The following applies: Caenorhabditis elegans, 48 h. As to the method:
(§2) All strains were obtained from the Caenorhabditis Genetic Centre (CGC, Minneapolis, MN, USA). Strains were maintained at 20 °C on nematode growth medium (NGM). All worms were age-synchronized and obtained from eggs that were isolated by bleaching.
(§3) Young adult (L4 stage) worms were used to assess drug lethality. Monitored endpoint was 48 h mortality. Tests were performed in 24-well plates. Five hundred (500) microliters of test solution, which is M9-buffer (3 g KH2PO4, 6 g Na2HPO4, 5 g NaCl, 0.25 g MgSO4.7H2O, in 1 L of water after been autoclaved supplemented with 2% glucose, 0.5% cholesterol), were distributed in 24-well plates. The volume of M9-buffer equivalent to the drug to be added for each drug final concentration (in each test, three to six concentrations were used) was removed. Untreated worms in M9-buffer were used as negative control. […] Crude extract fraction (stock solution at 100 mg/mL) and pure compound (stock solution at 100 mg/mL) previously dissolved in M9-buffer were then added in well plates at increasing concentration (varying from 0 to 1000 or 1500 µg/mL for extract and fractions; 0 to 100 or 150 µg/mL). The young adult (10 to 15 ± 2) from the axenic culture (without food source) were then added at the test solution. […] Treatments were replicated three times.

In series [3] the test system is C. elegans ZZ16 (lev-9(x16) X). The experiment in a line: microbe, parasite or virus in culture. The note with it: Caenorhabditis elegans, 48 h. As to the method: as §2, §3
A further series concerns C. elegans N2 Bristol WT. The series is described as follows: microbe, parasite or virus in culture. The following applies: for LC50: Caenorhabditis elegans, 48 h; for Selectivity Index (SI) C. elegans Wild Type: SI = CC50 on Caco-2/LC50 on worm. As to the method: as §2, §3
For series [4], the system named is C. elegans CB3474 (ben-1(e1880) III). The experiment in a line: microbe, parasite or virus in culture. The note with it: Caenorhabditis elegans, 48 h. The method, then:
as §2, §3

Series [5] has as its system C. elegans VC722 (glc-2(ok1047) I). The experiment in a line: microbe, parasite or virus in culture. The note with it: Caenorhabditis elegans, 48 h. The method, then: as §2, §3
In series [6] the test system is C. elegans DA1316 (avr-14(ad1302) I avr-15(ad1051) glc-1(pk54)). The experiment in a line: microbe, parasite or virus in culture. The note with it: Caenorhabditis elegans, 48 h. As to the method:
as §2, §3

A further series relates to O. ochengi microfilariae. The series is described as follows: microbe, parasite or virus in culture. The note with it: for LC50: Onchocerca ochengi, 48 h; for Selectivity Index (SI) O. ochengi Microfilariae: SI = CC50 on Caco-2/LC50 on worm. The arrangement: species or system Onchocerca ochengi. As to the method:
Microfilariae were isolated as describe by Cho-Ngwa et al. and Ndjonka et al.. About 10 skin snips were obtained from different locations of the skin. The skin snips were then incubated at 37 °C in PBS to let Mf emerge. The highly motile Mf were concentrated by centrifugation at 400× g for 10 min and quantified. The Mf were incubated at 37 °C with the crude extract, fractions and pure compounds.
as §1

The mark [7] stands for this setting: Phase 1, 10 mg/kg single oral dose.
[8] abbreviates: Phase 1, 100 mg/kg single oral dose.
The mark [9] stands for this setting: Phase 1, 1000 mg/kg single oral dose.
Setting [10] is: Phase 2, 1500 mg/kg single oral dose.
Where [11] appears, read: Phase 2, 3000 mg/kg single oral dose.
Setting [12] is: Phase 2, 5000 mg/kg single oral dose.
Setting [13] is: read-out: LC50/48 h (in brackets).

The structures appear in SMILES notation. Values after ≈ are worked out from the molar mass of the structure shown. Like-named read-outs stand apart in the source and are kept apart here.

Source text for Wistar rats: Adult Wistar rats (Rattus norvegicus), males aged 7 to 8 weeks and weighing 150 to 200 g, used for the experiments were obtained from LANAVET (Laboratoire National Vétérinaire, Garoua, Cameroon). The rats were acclimatized for one week in the Veterinary Research Laboratory of the Institute of Agricultural Research for Development, Wakwa, Cameroon, before initiating experiments. Animals were housed in groups of three (one group for the negative control, six groups for each drug at the first phase, six others at the second phase) under ambient temperatures (23 °C ± 1 °C) with relative humidity 55 ± 5% and 12 h light/dark cycle in polycarbonate cages. […] They were monitored by a veterinarian for health status.
Acute oral toxicity (LD50, that is the dose that kills 50% of animals of the tested group) was measured using the method of the OECD guidelines for the testing of chemicals [56] following the European Community guidelines for the protection of animals used in experiments [69] and respecting the 3Rs (Replacement, Refinement, Reduction) [70]. Drugs in distilled water were orally administered separately at doses of 10 mg/kg, 100 mg/kg and 1000 mg/kg body weight. The negative controls were distilled water-administered rats. They were given to three groups of three rats each and observed for 24 h. […] The test was done at a single oral dose for each rat in a 5 mL/kg volume. The experimental animals were starved for 24 h before and 4 h after treatment. […] The appearance of toxic symptoms, such as behavioral changes, locomotion, convulsions and mortality, was observed and recorded. Animals were observed constantly for the first 30 min after administration and, thereafter, every 4 h up to 24 h and, subsequently, once a day for up to 14 days.

With `Oc1cc(O)c2c(c1)O[C@H](c1cc(O)c(O)c(O)c1)[C@H](O)C2` [EGC, (−)-epigallocatechin], the “Mortality of rats: rat number end/start” value with Wistar rats (setting [7]), in the series on Wistar rats (setting [8]), in the series with Wistar rats (setting [9]), in the series on Wistar rats (setting [10]), in the series on Wistar rats (setting [11]) and in the series with Wistar rats (setting [12]) was 0/3 in each case. In [1], the CC50 at 48 h is 154 µM. In [1], the CC50 at 72 h worked out at 47.1 ± 0.5 µg/mL (≈ 154 µM). For the same compound, the LC50 with O. ochengi females (read-out: LC50/48 h) is 3.3 ± 0.6 µg/mL; with O. ochengi females (setting [13]) it was 10.6 µM; with O. ochengi males (read-out: LC50/48 h), 2.1 ± 0.4 µg/mL; in the series on O. ochengi males (setting [13]), 6.8 µM; in series [2] (read-out: LC50/48 h), 83.3 ± 0.6 µg/mL; in [2] (setting [13]) it was 272 µM. For the same compound, the LC50 was 92 ± 0.3 µg/mL in series [3] (read-out: LC50/48 h); 301 µM in [3] (setting [13]); 62.7 ± 0.2 µg/mL with C. elegans N2 Bristol WT (read-out: LC50/48 h); 205 µM in the series on C. elegans N2 Bristol WT (setting [13]); 53.8 ± 0.9 µg/mL in [4] (read-out: LC50/48 h); 176 µM in series [4] (setting [13]). The LC50 in series [5] (read-out: LC50/48 h) was 93.8 ± 0.3 µg/mL; in series [5] (setting [13]) it was 306 µM; in [6] (read-out: LC50/48 h), 87.5 ± 0.5 µg/mL; in [6] (setting [13]) it was 286 µM; with O. ochengi microfilariae (read-out: LC50/48 h), 3.3 ± 0.5 µg/mL; in the series on O. ochengi microfilariae (setting [13]), 10.6 µM. For the same compound, the “Selectivity Index (SI) O. ochengi Females” value in the series with O. ochengi females came out at 14.3. For the same compound, the “Selectivity Index (SI) O. ochengi Males” value in the series on O. ochengi males was 22.4. Besides, the “Selectivity Index (SI) C. elegans Wild Type” value in the series with C. elegans N2 Bristol WT stood at 0.8. Further, the “Selectivity Index (SI) O. ochengi Microfilariae” value with O. ochengi microfilariae is recorded as 14.3.

`c1ccc([C@H]2CN3CCSC3=N2)cc1` [Levamisole, reference compound]: in series [1], the CC50 at 48 h is 31.2 µM. For the same compound, in series [1], the CC50 at 72 h was 27.3 ± 0.8 µg/mL (≈ 134 µM). In addition, the LC50 with O. ochengi females (read-out: LC50/48 h) was 2.1 ± 0.1 µg/mL; in the series on O. ochengi females (setting [13]), 10.2 µM; in the series on O. ochengi males (read-out: LC50/48 h) it was 1 ± 1 µg/mL; in the series with O. ochengi males (setting [13]) it was 5.1 µM; in series [2] (read-out: LC50/48 h), more than 100 µg/mL; in series [3] (read-out: LC50/48 h), more than 100 µg/mL. The LC50 in the series on C. elegans N2 Bristol WT (read-out: LC50/48 h) was 1.4 ± 0.2 µg/mL; with C. elegans N2 Bristol WT (setting [13]), 7.2 µM; with O. ochengi microfilariae (read-out: LC50/48 h), 1 ± 0.3 µg/mL; in the series on O. ochengi microfilariae (setting [13]), 5.1 µM. Further, the “Selectivity Index (SI) O. ochengi Females” value in the series with O. ochengi females was found to be 13.0. In addition, the “Selectivity Index (SI) O. ochengi Males” value in the series on O. ochengi males was 27.3. In the series on O. ochengi microfilariae, the “Selectivity Index (SI) O. ochengi Microfilariae” value stood at 27.3.

For the compound `CCCSc1ccc2nc(NC(=O)OC)[nH]c2c1` [Albendazole, reference compound], the “Mortality of rats: rat number end/start” value with Wistar rats (setting [7]), in the series on Wistar rats (setting [8]), in the series on Wistar rats (setting [9]), in the series with Wistar rats (setting [10]), with Wistar rats (setting [11]) and in the series on Wistar rats (setting [12]) was 0/3 each time. In series [1], the CC50 at 48 h is 111 µM. The CC50 at 72 h in [1] worked out at 29.4 ± 0.5 µg/mL (≈ 111 µM). The LC50 is 1 ± 0.2 µg/mL with O. ochengi females (read-out: LC50/48 h); 3.9 µM in the series with O. ochengi females (setting [13]); 4.2 ± 0.3 µg/mL in the series with O. ochengi males (read-out: LC50/48 h); 15.7 µM in the series on O. ochengi males (setting [13]); 26.4 µM in the series with C. elegans N2 Bristol WT (setting [13]); more than 100 µg/mL in series [4] (read-out: LC50/48 h). Also, the LC50 was 2.1 ± 0.5 µg/mL in the series with O. ochengi microfilariae (read-out: LC50/48 h) and 7.8 µM in the series on O. ochengi microfilariae (setting [13]). Besides, the “Selectivity Index (SI) O. ochengi Females” value in the series with O. ochengi females is listed as 29.4. Also, the “Selectivity Index (SI) O. ochengi Males” value with O. ochengi males came to 7. Also, the “Selectivity Index (SI) C. elegans Wild Type” value in the series on C. elegans N2 Bristol WT stood at 4.1. The “Selectivity Index (SI) O. ochengi Microfilariae” value with O. ochengi microfilariae is on record as 14.
